Measured values taken from PubChem BioAssay AID248 (DTP/NCI, 2004).
Inconclusive results and toxic doses are left out.

Test system: L1210 leukemia ip in BDF1 mice, survival T/C
Assay: NCI In Vivo Anticancer Drug Screen. Data for tumor model L1210 Leukemia (intraperitoneal) in B6D2F1 (BDF1) mice
Conditions: endpoint: mean survival time, higher = longer survival
In short: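 Ratio derived from survival: compound-dosed mice over vehicle-dosed mice, all bearing a transplantable tumor.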

[1] = dose: 100.0 mg/kg/injection, schedule: Q01DX001 (ip), vehicle: saline
[2] = dose: 200.0 mg/kg/injection, schedule: Q01DX001 (ip), vehicle: saline
[3] = dose: 400.0 mg/kg/injection, schedule: Q01DX001 (ip), vehicle: saline
[4] = dose: 100.0 mg/kg/injection, schedule: Q01DX001 (ip), vehicle: other
[5] = dose: 200.0 mg/kg/injection, schedule: Q01DX001 (ip), vehicle: other
[6] = dose: 400.0 mg/kg/injection, schedule: Q01DX001 (ip), vehicle: other
[7] = dose: 100.0 mg/kg/injection, schedule: Q04DX003 (ip), vehicle: saline with Tween-80
[8] = dose: 200.0 mg/kg/injection, schedule: Q04DX003 (ip), vehicle: saline with Tween-80
[9] = dose: 400.0 mg/kg/injection, schedule: Q04DX003 (ip), vehicle: saline with Tween-80
[10] = dose: 100.0 mg/kg/injection, schedule: Q04DX003 (ip), vehicle: saline
[11] = dose: 200.0 mg/kg/injection, schedule: Q04DX003 (ip), vehicle: saline
[12] = dose: 400.0 mg/kg/injection, schedule: Q04DX003 (ip), vehicle: saline
[13] = dose: 100.0 mg/kg/injection, schedule: Q01DX001 (ip), vehicle: saline with Tween-80
[14] = dose: 200.0 mg/kg/injection, schedule: Q01DX001 (ip), vehicle: saline with Tween-80
[15] = dose: 400.0 mg/kg/injection, schedule: Q01DX001 (ip), vehicle: saline with Tween-80
[16] = dose: 50.0 mg/kg/injection, schedule: Q01DX001 (ip), vehicle: saline
[17] = dose: 100.0 mg/kg/injection, schedule: Q04DX002 (ip), vehicle: Klucel (hydroxypropylcellulose) (HPC)
[18] = dose: 200.0 mg/kg/injection, schedule: Q04DX002 (ip), vehicle: Klucel (hydroxypropylcellulose) (HPC)
[19] = dose: 400.0 mg/kg/injection, schedule: Q04DX002 (ip), vehicle: Klucel (hydroxypropylcellulose) (HPC)
[20] = dose: 200.0 mg/kg/injection, schedule: Q01DX009 (ip), vehicle: saline
[21] = dose: 400.0 mg/kg/injection, schedule: Q01DX009 (ip), vehicle: saline
[22] = dose: 100.0 mg/kg/injection, schedule: Q01DX009 (ip), vehicle: saline

SMILES: O=C(O)c1cc(N2C(=O)C=CC2=O)cc(N2C(=O)C=CC2=O)c1
- T/C (dose: 11.1 mg/kg/injection, schedule: Q01DX Z (ip), vehicle: methylcellulose (MC)): 102 % of control
- T/C (dose: 16.6 mg/kg/injection, schedule: Q01DX Z (ip), vehicle: methylcellulose (MC)): 102 % of control
- T/C (dose: 25.0 mg/kg/injection, schedule: Q01DX Z (ip), vehicle: methylcellulose (MC)): 94 % of control

SMILES: CN(C)N=Nc1ccccc1C(=O)NNC(N)=S
- T/C (dose: 18.75 mg/kg/injection, schedule: Q01DX009 (ip), vehicle: Klucel (hydroxypropylcellulose) (HPC)): 109 % of control
- T/C (dose: 37.5 mg/kg/injection, schedule: Q01DX009 (ip), vehicle: Klucel (hydroxypropylcellulose) (HPC)): 116 % of control
- T/C (dose: 75.0 mg/kg/injection, schedule: Q01DX009 (ip), vehicle: Klucel (hydroxypropylcellulose) (HPC)): 89 % of control

SMILES: CCOP1(=O)OCC(C)(C)CO1
- T/C [1]: 98 % of control
- T/C [2]: 96 % of control
- T/C [3]: 102 % of control

SMILES: Cc1ccc(C2CCCCC2OS(=O)(=O)c2ccc(C)cc2)cc1 (stereo not drawn)
- T/C (dose: 100.0 mg/kg/injection, schedule: Q01DX001 (ip), vehicle: steriod suspending solution): 102 % of control
- T/C (dose: 200.0 mg/kg/injection, schedule: Q01DX001 (ip), vehicle: steriod suspending solution): 95 % of control
- T/C (dose: 400.0 mg/kg/injection, schedule: Q01DX001 (ip), vehicle: steriod suspending solution): 109 % of control

SMILES: Cc1ccc([Si](O)(c2ccc(C)cc2)c2ccc(C)cc2)cc1
- T/C [4]: 97 % of control
- T/C [5]: 97 % of control
- T/C [6]: 100 % of control

SMILES: CCOC(=O)C(C)(C(=O)OCC)c1cc(OC)c(C)cc1Br
- T/C (dose: 50.0 mg/kg/injection, schedule: Q04DX003 (ip), vehicle: saline with Tween-80): 100 % of control
- T/C [7]: 103 % of control
- T/C [8]: 100 % of control
- T/C [9]: 97 % of control

SMILES: C(=Nc1ccccc1)c1ccc[nH]1
- T/C [7]: 100 % of control
- T/C [8]: 93 % of control
- T/C [9]: 96 % of control

SMILES: Cc1nc(SCc2ccc(Cl)cc2)[nH]c(=O)c1CC(C)O (stereo not drawn)
- T/C [10]: 97 % of control
- T/C [11]: 89 % of control
- T/C [12]: 89 % of control

SMILES: C1CCC(CCC(CCCC2CCCC2)CCC2CCCCC2)CC1
- T/C [13]: 94 % of control
- T/C [14]: 94 % of control
- T/C [15]: 102 % of control

SMILES: COc1ccc(CN(C)CCN(C)CCN(C)Cc2ccc(OC)cc2)cc1
- T/C (dose: 25.0 mg/kg/injection, schedule: Q01DX009 (ip), vehicle: water): 105 % of control
- T/C (dose: 50.0 mg/kg/injection, schedule: Q01DX009 (ip), vehicle: water): 99 % of control
- T/C (dose: 100.0 mg/kg/injection, schedule: Q01DX009 (ip), vehicle: water): 101 % of control

SMILES: O=C(CCCC(=O)N/N=C/c1c(Cl)cccc1Cl)N/N=C\c1c(Cl)cccc1Cl
- T/C [16]: 100 % of control
- T/C [1]: 106 % of control
- T/C [2]: 100 % of control
- T/C [3]: 103 % of control

SMILES: Cc1ccc(NC(=S)Nc2ccc(C(C)C)cc2)c(C)c1
- T/C [17]: 118 % of control
- T/C [18]: 103 % of control
- T/C [19]: 100 % of control

SMILES: CC(CNC(=O)CCBr)NC(=O)CCBr (stereo not drawn)
- T/C (dose: 50.0 mg/kg/injection, schedule: Q01DX Z (ip), vehicle: carboxymethylcellulose (CMC)): 103 % of control
- T/C (dose: 170.0 mg/kg/injection, schedule: Q01DX Z (ip), vehicle: carboxymethylcellulose (CMC)): 100 % of control
- T/C [20]: 153 % of control
- T/C [21]: 178 % of control

SMILES: CSCCCN
- T/C [22]: 99 % of control
- T/C [10]: 102 % of control
- T/C [20]: 95 % of control
- T/C [11]: 104 % of control
- T/C [21]: 95 % of control
- T/C [12]: 96 % of control

SMILES: COC(=O)C1CN(Cc2ccccc2)C(=O)C1=O (stereo not drawn)
- T/C [16]: 100 % of control
- T/C [1]: 100 % of control
- T/C [2]: 90 % of control
- T/C [3]: 96 % of control

SMILES: COc1ccc(OCC(=O)N2CCCC2)cc1
- T/C [17]: 103 % of control
- T/C [18]: 96 % of control
- T/C [19]: 96 % of control

SMILES: O=S(/C=C/c1ccccc1)c1ccc(Br)cc1 (stereo not drawn)
- T/C [10]: 100 % of control
- T/C [11]: 93 % of control
- T/C [12]: 100 % of control

SMILES: O=C1CCC2=C3C4CCCCC4C(=O)C4CCCC(OC2C1)C34 (stereo not drawn)
- T/C (dose: 75.0 mg/kg/injection, schedule: Q01DX001 (ip), vehicle: other): 105 % of control
- T/C (dose: 150.0 mg/kg/injection, schedule: Q01DX001 (ip), vehicle: other): 94 % of control
- T/C (dose: 300.0 mg/kg/injection, schedule: Q01DX001 (ip), vehicle: other): 89 % of control

SMILES: CNC(=O)NCCOC(=O)NC
- T/C [22]: 94 % of control
- T/C [10]: 96 % of control
- T/C [20]: 98 % of control
- T/C [11]: 101 % of control
- T/C [21]: 107 % of control
- T/C [12]: 101 % of control

SMILES: O=C1C=C(O)C(c2ccccc2)=CC1=O
- T/C (dose: 100.0 mg/kg/injection, schedule: Q01DX001 (ip), vehicle: water): 104 % of control
- T/C (dose: 200.0 mg/kg/injection, schedule: Q01DX001 (ip), vehicle: water): 119 % of control

SMILES: Cc1csc(C)n1
- T/C (dose: 100.0 mg/kg/injection, schedule: Q01DX009 (ip), vehicle: saline with Tween-80): 95 % of control
- T/C [7]: 103 % of control
- T/C (dose: 200.0 mg/kg/injection, schedule: Q01DX009 (ip), vehicle: saline with Tween-80): 95 % of control
- T/C [8]: 107 % of control
- T/C [9]: 107 % of control

SMILES: CC(C)CN(CC(=O)N1CC(=O)Nc2ccccc21)CC(C)C
- T/C [22]: 94 % of control
- T/C [10]: 95 % of control
- T/C [20]: 87 % of control
- T/C [11]: 95 % of control
- T/C [12]: 92 % of control

SMILES: Cc1cccc2cc3cccc[n+]3cc12
- T/C (dose: 1.56 mg/kg/injection, schedule: Q04DX003 (ip), vehicle: saline): 101 % of control
- T/C (dose: 3.12 mg/kg/injection, schedule: Q01DX009 (ip), vehicle: saline): 96 % of control
- T/C (dose: 3.12 mg/kg/injection, schedule: Q04DX003 (ip), vehicle: saline): 93 % of control
- T/C (dose: 6.25 mg/kg/injection, schedule: Q01DX009 (ip), vehicle: saline): 96 % of control
- T/C (dose: 6.25 mg/kg/injection, schedule: Q04DX003 (ip), vehicle: saline): 97 % of control
- T/C (dose: 12.5 mg/kg/injection, schedule: Q04DX003 (ip), vehicle: saline): 100 % of control

SMILES: Oc1ccc(C=NCCN=Cc2ccc(O)cc2)cc1
- T/C [4]: 103 % of control
- T/C [5]: 103 % of control
- T/C [6]: 103 % of control

SMILES: CC(=O)N1N=C(c2ccccc2)CC1C1CC(c2ccccc2)=NN1C(C)=O (stereo not drawn)
- T/C [1]: 102 % of control
- T/C [2]: 100 % of control
- T/C [3]: 102 % of control

SMILES: C[P+]1(c2ccccc2)C2C=CC=CC1C=C2 (stereo not drawn)
- T/C (dose: 5.0 mg/kg/injection, schedule: Q01DX001 (ip), vehicle: carboxymethylcellulose (CMC)): 100 % of control
- T/C (dose: 10.0 mg/kg/injection, schedule: Q01DX001 (ip), vehicle: carboxymethylcellulose (CMC)): 92 % of control
- T/C (dose: 20.0 mg/kg/injection, schedule: Q01DX001 (ip), vehicle: carboxymethylcellulose (CMC)): 97 % of control

SMILES: O=[N+]([O-])c1ccc(/C=N/c2oc(-c3ccc([N+](=O)[O-])cc3)nc2SCc2ccccc2)cc1
- T/C (dose: 50.0 mg/kg/injection, schedule: Q04DX002 (ip), vehicle: Klucel (hydroxypropylcellulose) (HPC)): 100 % of control
- T/C [17]: 100 % of control
- T/C [18]: 116 % of control

SMILES: CCOC(=O)Nc1cc2c(c(NC(=O)OCC)n1)N=C(C)CN2 (tested in a mixture with another compound)
- T/C [13]: 95 % of control
- T/C [14]: 95 % of control
- T/C (dose: 200.0 mg/kg/injection, schedule: Q04DX002 (ip), vehicle: saline with Tween-80): 95 % of control
- T/C [15]: 95 % of control
- T/C (dose: 400.0 mg/kg/injection, schedule: Q04DX002 (ip), vehicle: saline with Tween-80): 103 % of control
- T/C (dose: 600.0 mg/kg/injection, schedule: Q04DX002 (ip), vehicle: saline with Tween-80): 103 % of control
